The record followed here is ChEMBL document CHEMBL3739350, “Novel hydrazone moiety-bearing aminopyrimidines as selective inhibitors of epidermal growth factor receptor T790M mutant” (Eur J Med Chem, 2015).

For assay [1], the system named is A549. Briefly: Antiproliferative activity against human A549 cells harboring wild type EGFR/k-Ras mutation after 72 hrs by MTT assay. Format: functional, cell-based. To be noted: A549, 72 h.
Assay [2] has as its system NCI-H1975. Put plainly: cells. To be noted: Homo sapiens, NCI-H1975, 72 h. It is filed as functional, cell-based.
For assay [3], the system named is HT-29. Briefly: cells. Format: functional, cell-based. The following applies: Homo sapiens, HT-29, 72 h.
Description: Cytotoxicity against human HT-29 cells assessed as inhibition of cell proliferation after 72 hrs by MTT assay
The target in assay [4] is Epidermal growth factor receptor (Homo sapiens, UniProt P00533, L858R/T790M). Format: protein assay.
Epidermal growth factor receptor (Homo sapiens, UniProt P00533, L858R/T790M), sequence (P00533 25-1210 T790M/L858R limits assumed): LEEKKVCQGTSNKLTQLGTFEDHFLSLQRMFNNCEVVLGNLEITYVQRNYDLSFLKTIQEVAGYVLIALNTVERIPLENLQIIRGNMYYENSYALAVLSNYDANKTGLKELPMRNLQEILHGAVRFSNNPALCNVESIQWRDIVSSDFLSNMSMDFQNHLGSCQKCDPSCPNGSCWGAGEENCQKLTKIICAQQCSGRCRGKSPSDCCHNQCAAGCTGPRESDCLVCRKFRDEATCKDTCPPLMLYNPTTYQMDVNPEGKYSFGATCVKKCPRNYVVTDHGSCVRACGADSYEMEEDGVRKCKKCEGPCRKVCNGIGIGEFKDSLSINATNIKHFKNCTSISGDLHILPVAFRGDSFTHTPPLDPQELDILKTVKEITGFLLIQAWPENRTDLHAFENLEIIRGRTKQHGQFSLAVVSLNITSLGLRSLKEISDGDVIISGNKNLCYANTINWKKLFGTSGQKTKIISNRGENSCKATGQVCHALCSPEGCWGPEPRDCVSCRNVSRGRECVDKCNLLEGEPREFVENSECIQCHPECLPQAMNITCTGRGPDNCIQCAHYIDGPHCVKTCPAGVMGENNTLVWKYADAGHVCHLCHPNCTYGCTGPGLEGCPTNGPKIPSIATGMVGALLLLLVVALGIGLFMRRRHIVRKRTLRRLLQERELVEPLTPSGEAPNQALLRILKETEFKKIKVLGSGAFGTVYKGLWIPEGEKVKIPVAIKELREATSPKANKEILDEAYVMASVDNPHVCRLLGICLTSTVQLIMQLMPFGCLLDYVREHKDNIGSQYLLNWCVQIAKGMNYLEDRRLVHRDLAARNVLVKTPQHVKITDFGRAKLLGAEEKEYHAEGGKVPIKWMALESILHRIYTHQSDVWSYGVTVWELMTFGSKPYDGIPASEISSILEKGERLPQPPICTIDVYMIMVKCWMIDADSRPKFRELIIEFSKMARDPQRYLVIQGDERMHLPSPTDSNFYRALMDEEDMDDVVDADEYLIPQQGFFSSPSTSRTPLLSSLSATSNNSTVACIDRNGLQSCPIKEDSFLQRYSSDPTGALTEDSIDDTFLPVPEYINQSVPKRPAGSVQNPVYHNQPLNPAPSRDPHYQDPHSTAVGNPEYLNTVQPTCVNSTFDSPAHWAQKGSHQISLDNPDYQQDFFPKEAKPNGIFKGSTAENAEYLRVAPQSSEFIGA
Assay [5] has as its target Epidermal growth factor receptor (Homo sapiens, UniProt P00533, DELE746/T790M). Format: protein assay.
For assay [6], the target named is Epidermal growth factor receptor (Homo sapiens, UniProt P00533, T790M). It is filed as protein assay.
Epidermal growth factor receptor (Homo sapiens, UniProt P00533, T790M), sequence (P00533 25-1210 T790M limits assumed): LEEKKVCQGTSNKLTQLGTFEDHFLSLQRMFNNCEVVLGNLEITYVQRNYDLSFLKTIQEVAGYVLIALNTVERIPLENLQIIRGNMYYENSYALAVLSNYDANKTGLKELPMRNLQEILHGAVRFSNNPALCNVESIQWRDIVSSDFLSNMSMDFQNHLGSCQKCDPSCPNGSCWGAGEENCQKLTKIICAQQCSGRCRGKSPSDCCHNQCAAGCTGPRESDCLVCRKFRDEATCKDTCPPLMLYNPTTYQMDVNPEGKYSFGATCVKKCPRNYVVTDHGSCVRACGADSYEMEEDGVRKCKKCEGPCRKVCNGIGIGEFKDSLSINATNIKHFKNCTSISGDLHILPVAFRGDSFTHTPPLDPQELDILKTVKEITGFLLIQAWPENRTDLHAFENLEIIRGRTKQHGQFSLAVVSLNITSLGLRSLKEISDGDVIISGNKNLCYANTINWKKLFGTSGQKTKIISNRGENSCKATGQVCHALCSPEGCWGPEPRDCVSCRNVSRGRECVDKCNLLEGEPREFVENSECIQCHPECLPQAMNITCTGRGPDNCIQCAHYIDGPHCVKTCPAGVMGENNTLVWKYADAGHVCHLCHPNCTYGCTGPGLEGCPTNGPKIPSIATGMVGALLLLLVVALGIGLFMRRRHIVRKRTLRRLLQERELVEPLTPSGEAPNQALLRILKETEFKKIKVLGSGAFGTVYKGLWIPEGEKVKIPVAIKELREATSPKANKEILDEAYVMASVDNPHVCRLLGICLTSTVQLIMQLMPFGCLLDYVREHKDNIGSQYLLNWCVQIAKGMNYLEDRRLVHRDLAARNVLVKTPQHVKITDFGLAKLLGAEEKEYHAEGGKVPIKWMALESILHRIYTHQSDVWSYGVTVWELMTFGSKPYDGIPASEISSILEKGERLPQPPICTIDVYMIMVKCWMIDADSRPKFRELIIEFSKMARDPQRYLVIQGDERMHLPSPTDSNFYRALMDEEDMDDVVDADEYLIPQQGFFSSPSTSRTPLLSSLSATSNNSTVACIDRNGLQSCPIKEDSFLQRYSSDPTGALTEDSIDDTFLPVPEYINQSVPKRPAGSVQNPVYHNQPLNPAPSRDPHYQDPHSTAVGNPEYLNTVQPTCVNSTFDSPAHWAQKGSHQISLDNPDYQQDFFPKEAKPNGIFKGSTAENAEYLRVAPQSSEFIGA
The target of assay [7] is Epidermal growth factor receptor (Homo sapiens, UniProt P00533). Briefly: Inhibition of wild type recombinant human EGFR preincubated for 10 mins followed by FAM-labeled peptide/ATP addition measured after 1 hr by mobility shift assay.
Epidermal growth factor receptor (Homo sapiens, UniProt P00533), sequence (P00533 whole entry): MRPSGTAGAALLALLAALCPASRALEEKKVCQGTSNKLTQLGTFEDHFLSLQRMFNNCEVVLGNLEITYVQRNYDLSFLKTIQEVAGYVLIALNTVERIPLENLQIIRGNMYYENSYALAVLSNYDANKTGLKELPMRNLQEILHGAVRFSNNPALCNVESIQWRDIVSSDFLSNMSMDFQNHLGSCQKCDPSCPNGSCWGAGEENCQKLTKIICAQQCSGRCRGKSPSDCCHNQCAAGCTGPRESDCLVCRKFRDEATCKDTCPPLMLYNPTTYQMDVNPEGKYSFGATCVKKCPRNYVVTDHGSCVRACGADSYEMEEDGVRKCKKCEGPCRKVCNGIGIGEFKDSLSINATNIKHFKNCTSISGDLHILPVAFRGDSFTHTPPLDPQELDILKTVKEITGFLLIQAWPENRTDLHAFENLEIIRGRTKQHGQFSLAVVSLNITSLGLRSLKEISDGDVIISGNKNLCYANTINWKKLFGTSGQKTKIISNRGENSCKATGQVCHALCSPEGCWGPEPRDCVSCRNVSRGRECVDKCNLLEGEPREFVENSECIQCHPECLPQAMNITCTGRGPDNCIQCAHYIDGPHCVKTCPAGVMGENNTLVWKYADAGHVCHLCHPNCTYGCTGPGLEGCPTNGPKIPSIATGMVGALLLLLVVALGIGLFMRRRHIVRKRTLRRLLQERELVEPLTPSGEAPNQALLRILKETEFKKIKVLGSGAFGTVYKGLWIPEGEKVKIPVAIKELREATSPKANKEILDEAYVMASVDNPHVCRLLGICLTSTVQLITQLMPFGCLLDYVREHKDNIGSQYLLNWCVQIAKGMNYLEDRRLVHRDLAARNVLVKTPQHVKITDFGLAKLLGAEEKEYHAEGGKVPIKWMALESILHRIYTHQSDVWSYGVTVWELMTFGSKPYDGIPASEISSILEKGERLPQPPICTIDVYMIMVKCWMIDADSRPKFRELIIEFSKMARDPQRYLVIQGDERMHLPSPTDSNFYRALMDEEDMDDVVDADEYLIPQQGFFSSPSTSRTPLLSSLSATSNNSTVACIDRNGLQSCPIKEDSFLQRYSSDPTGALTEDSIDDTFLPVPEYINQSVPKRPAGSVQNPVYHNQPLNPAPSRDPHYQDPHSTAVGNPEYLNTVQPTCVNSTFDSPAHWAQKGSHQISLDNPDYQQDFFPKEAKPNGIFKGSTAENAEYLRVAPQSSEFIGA

pIC50: −log10 of the molar value.

Epidermal growth factor receptor (Homo sapiens, UniProt P00533, DELE746/T790M), sequence (P00533 whole entry E746del/T790M, looked up): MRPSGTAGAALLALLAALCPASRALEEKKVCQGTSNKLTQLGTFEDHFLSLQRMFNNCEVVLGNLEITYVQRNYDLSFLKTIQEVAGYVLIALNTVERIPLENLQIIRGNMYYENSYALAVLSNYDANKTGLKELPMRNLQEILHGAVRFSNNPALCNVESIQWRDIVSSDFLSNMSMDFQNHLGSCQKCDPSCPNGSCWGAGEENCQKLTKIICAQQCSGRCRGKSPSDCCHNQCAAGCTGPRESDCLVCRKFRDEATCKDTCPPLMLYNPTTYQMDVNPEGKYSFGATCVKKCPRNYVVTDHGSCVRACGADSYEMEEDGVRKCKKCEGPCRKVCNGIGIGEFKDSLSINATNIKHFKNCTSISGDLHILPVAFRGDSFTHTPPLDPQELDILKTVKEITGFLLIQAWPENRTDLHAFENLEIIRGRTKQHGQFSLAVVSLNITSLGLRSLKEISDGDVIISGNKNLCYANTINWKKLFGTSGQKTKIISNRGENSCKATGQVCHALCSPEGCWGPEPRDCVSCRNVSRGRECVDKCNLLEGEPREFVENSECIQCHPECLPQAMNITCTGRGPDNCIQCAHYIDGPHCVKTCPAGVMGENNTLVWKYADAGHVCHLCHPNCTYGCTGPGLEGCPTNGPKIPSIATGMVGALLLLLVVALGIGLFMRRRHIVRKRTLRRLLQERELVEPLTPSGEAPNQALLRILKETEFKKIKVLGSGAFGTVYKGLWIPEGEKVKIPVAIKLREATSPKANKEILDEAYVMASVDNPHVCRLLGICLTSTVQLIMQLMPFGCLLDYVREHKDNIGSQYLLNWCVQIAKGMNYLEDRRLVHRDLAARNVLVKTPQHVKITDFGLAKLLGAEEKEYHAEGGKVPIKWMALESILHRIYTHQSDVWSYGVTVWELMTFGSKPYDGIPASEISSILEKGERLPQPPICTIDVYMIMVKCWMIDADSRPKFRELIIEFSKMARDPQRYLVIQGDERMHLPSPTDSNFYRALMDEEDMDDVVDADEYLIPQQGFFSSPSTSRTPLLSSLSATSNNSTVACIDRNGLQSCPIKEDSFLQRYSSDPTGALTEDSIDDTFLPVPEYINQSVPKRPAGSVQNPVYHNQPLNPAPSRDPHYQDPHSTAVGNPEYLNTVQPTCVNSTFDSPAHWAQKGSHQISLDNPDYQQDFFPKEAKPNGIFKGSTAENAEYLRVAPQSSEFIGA

For orientation: pIC50 means the negative decadic logarithm of the IC50, by convention in mol/L. In the case of `C=CC(=O)Nc1cccc(Oc2nc(Nc3ccc(N4CCN(C)CC4)cc3OC)ncc2Cl)c1`, the pIC50 in assay [1] is 5.73; in assay [2], 7.24; in assay [3], 5.53.

Turning to `COc1ccc(/C(C)=N/Nc2ncc(Cl)c(Nc3cccc(NC(=O)/C=C/CN(C)C)c3)n2)cc1`, the pIC50 is 5.15 in assay [1], 6.00 in assay [2] and 5.17 in assay [3].

With `COc1ccc(/C=N/Nc2ncc(Cl)c(Nc3cccc(NC(=O)/C=C/CN(C)C)c3)n2)cc1`, the negative-log IC50 (pIC50) in assay [1] is 5.20; in assay [2], 5.80; in assay [3], 5.32.

As to `C=CC(=O)Nc1cccc(Nc2nc(N/N=C/c3ccccc3F)ncc2Cl)c1`, the pIC50 was 5.22 in assay [1]; 6.54 in assay [2]; 5.46 in assay [3]; 5.82 in assay [4]; 5.72 in assay [5]; 5.32 in assay [6]. Also, the pIC50 in assay [7] was less than 4.70.

Turning to `C/C(=N\Nc1ncc(Cl)c(Nc2cccc(NC(=O)/C=C/CN(C)C)c2)n1)c1ccc(F)cc1`, the pIC50 in assay [1] was 5.05; in assay [2], 5.94; in assay [3] it was 4.99; in assay [4], 5.63; in assay [7] it was 4.81.

As for `COc1cccc(/C(C)=N/Nc2ncc(Cl)c(Nc3cccc(NC(=O)/C=C/CN(C)C)c3)n2)c1`, the negative logarithm of the IC50 (pIC50) in assay [1] was 4.94; in assay [2], 6.04; in assay [3] it was 5.41.

As for `C=CC(=O)Nc1cccc(Nc2nc(NNC(=O)c3ccc(OC)cc3)ncc2Cl)c1`, the pIC50 in assay [1] was 4.59; in assay [2] it was 5.07.

In the case of `C=CC(=O)Nc1cccc(Nc2nc(N/N=C(\C)c3ccc(F)cc3F)ncc2Cl)c1`, the negative logarithm of the IC50 (pIC50) in assay [1] is 5.79; in assay [2], 6.52; in assay [3] it was 5.36; in assay [4], 5.64; in assay [7], 4.93.

For the compound `C=CC(=O)Nc1cccc(Nc2nc(N/N=C(\C)c3ccc(OC)cc3)ncc2Cl)c1`, the pIC50 in assay [1] was 5.11; in assay [2], 5.97; in assay [3] it was 5.34.

`CN(C)C/C=C/C(=O)Nc1cccc(Nc2nc(N/N=C/c3ccncc3)ncc2Cl)c1`: the results for the pIC50 in assay [1], in assay [2] and in assay [3] were 4.32, 5.38 and 4.60, respectively.

For the compound `C=CC(=O)Nc1cccc(Nc2nc(N/N=C(\C)c3cccc(OC)c3)ncc2Cl)c1`, the values for the pIC50 in assay [1], in assay [2] and in assay [3] were 4.99, 5.92 and 5.05, respectively.

For the compound `C=CC(=O)Nc1cccc(Nc2nc(N/N=C/c3ccc(F)cc3)ncc2Cl)c1`, the pIC50 in assay [1] was 4.98; in assay [2], 6.37; in assay [3], 5.20; in assay [4] it was 6.07; in assay [5], 6.24; in assay [6], 5.95. The negative logarithm of the IC50 (pIC50) in assay [7] is less than 4.70.

Consider `C=CC(=O)Nc1cccc(Nc2nc(N/N=C/c3ccc(F)cc3F)ncc2Cl)c1`, for which the pIC50 in assay [1] is 4.95; in assay [2], 6.42; in assay [3], 5.32; in assay [4] it was 4.94; in assay [7], less than 4.70.

In the case of `CN(C)C/C=C/C(=O)Nc1cccc(Nc2nc(N/N=C/c3c[nH]c4ccccc34)ncc2Cl)c1`, the pIC50 in assay [1] was 4.54; in assay [2], 5.26; in assay [3], 5.01; in assay [4], less than 4.70; in assay [7] it was less than 4.70.

Consider `C=CC(=O)Nc1cccc(Nc2nc(NNC(=O)c3ccc(F)cc3)ncc2Cl)c1`, for which the figures for the pIC50 in assay [1] and in assay [2] were 4.51 and 5.27, respectively.

Take `C/C(=N\Nc1ncc(Cl)c(Nc2cccc(NC(=O)/C=C/CN(C)C)c2)n1)c1ccc(F)cc1F`: the pIC50 was 5.25 in assay [1]; 6.32 in assay [2]; 5.46 in assay [3]; 6.14 in assay [4]; 5.90 in assay [5]; 6.09 in assay [6]. Moreover, the pIC50 in assay [7] is less than 4.70.

With `CN(C)C/C=C/C(=O)Nc1cccc(Nc2nc(N/N=C/c3cn(Cc4ccccc4)c4ccccc34)ncc2Cl)c1`, the pIC50 in assay [1] was 5.54; in assay [2], 6.59; in assay [3], 5.67; in assay [4], 6.06; in assay [5] it was 6.12; in assay [6] it was 6.10. Besides, the pIC50 in assay [7] is less than 4.70.

Regarding `C=CC(=O)Nc1cccc(Nc2nc(N/N=C(\C)c3ccc(F)cc3)ncc2Cl)c1`, the pIC50 in assay [1] is 5.09; in assay [2], 6.41; in assay [3], 5.30; in assay [4] it was 5.77; in assay [5], 5.89; in assay [6], 5.60. For the same compound, in assay [7], the pIC50 is less than 4.70.

With `C/C(=N\Nc1ncc(Cl)c(Nc2cccc(NC(=O)/C=C/CN(C)C)c2)n1)c1ccccn1`, the pIC50 is 6.08 in assay [1]; 7.11 in assay [2]; 6.92 in assay [3]; 5.62 in assay [4]; less than 4.70 in assay [7].

In the case of `C/C(=N\Nc1ncc(Cl)c(Nc2cccc(NC(=O)/C=C/CN(C)C)c2)n1)c1ccncc1`, the negative-log IC50 (pIC50) in assay [1] is 4.46; in assay [2], 5.20; in assay [3], 4.96.

Turning to `C=CC(=O)Nc1cccc(Nc2nc(N/N=C(\C)c3ccc(C)cc3)ncc2Cl)c1`, the pIC50 was 5.27 in assay [1]; 6.13 in assay [2]; 5.49 in assay [3]; 5.25 in assay [4]; less than 4.70 in assay [7].

Take `C=CC(=O)Nc1cccc(Nc2nc(N/N=C(\C)c3ccncc3)ncc2Cl)c1`: the pIC50 is 4.54 in assay [1], 5.43 in assay [2] and 4.89 in assay [3].

For `C=CC(=O)Nc1cccc(Nc2nc(N/N=C/c3cn(Cc4ccccc4)c4ccccc34)ncc2Cl)c1`, the negative-log IC50 (pIC50) is less than 4.00 in assay [1], 5.87 in assay [2] and 4.96 in assay [3].

On to `C/C(=N\Nc1ncc(Cl)c(Nc2cccc(NC(=O)/C=C/CN(C)C)c2)n1)c1ccc(C)cc1`, for which the pIC50 is 4.97 in assay [1], 5.86 in assay [2] and 4.93 in assay [3].

Turning to `CN(C)C/C=C/C(=O)Nc1cccc(Nc2nc(N/N=C/c3ccc(F)cc3F)ncc2Cl)c1`, the pIC50 in assay [1] was 5.66; in assay [2], 6.77; in assay [3], 5.53; in assay [4], 5.60; in assay [5], 5.29; in assay [6] it was 5.60. In addition, the pIC50 in assay [7] was less than 4.70.

In the case of `C/C(=N\Nc1ncc(Cl)c(Nc2cccc(NC(=O)/C=C/CN(C)C)c2)n1)c1cccnc1`, the negative-log IC50 (pIC50) is 4.76 in assay [1]; 5.63 in assay [2]; 5.02 in assay [3]; 5.36 in assay [4]; less than 4.70 in assay [7].

In the case of `Nc1cccc(Nc2nc(N/N=C/c3ccc(F)cc3)ncc2Cl)c1`, the pIC50 in assay [1] is 4.86; in assay [2] it was 5.00; in assay [3], 4.91.
